# US20080014278A1, “METAL-CONTAINING FORMULATIONS AND METHODS OF USE” (priority 2006, published 2008)
# What was measured:
# [1] = tested on: Staphylococcus aureus; assay: MIC assay (microdilution); assay type: cell-based
# [2] = tested on: Staphylococcus epidermidis; assay: MIC assay (microdilution); assay type: cell-based
# [3] = tested on: Streptococcus pyogenes; assay: MIC assay (microdilution); assay type: cell-based
# [4] = tested on: Streptococcus pneumoniae; assay: MIC assay (microdilution); assay type: cell-based; conditions: lactate solutions, nanocrystalline silver: range for 12 samples
# [5] = tested on: Pseudomonas aeruginosa; assay: MIC assay (microdilution); assay type: cell-based
# [6] = tested on: Burkholderia multivorans; assay: MIC assay (microdilution); assay type: cell-based
# [7] = tested on: Burkholderia dolosa; assay: MIC assay (microdilution); assay type: cell-based
# [8] = tested on: Citrobacter freundii; assay: MIC assay (microdilution); assay type: cell-based; conditions: C. freundii NP410
# [9] = tested on: Enterobacter cloacae; assay: MIC assay (microdilution); assay type: cell-based; conditions: Enterobacter cloacae
# [10] = tested on: Klebsiella pneumoniae; assay: MIC assay (microdilution); assay type: cell-based
# [11] = tested on: Proteus mirabilis; assay: MIC assay (microdilution); assay type: cell-based; conditions: Prot. mirabilis NP405
# [12] = tested on: Serratia marcescens; assay: MIC assay (microdilution); assay type: cell-based
# [13] = tested on: Escherichia coli; assay: MIC assay (microdilution); assay type: cell-based
# [14] = tested on: Mycobacterium tuberculosis H37Ra; assay type: cell-based
# [15] = tested on: Staph. aureus; assay: Minimal bactericidal concentration (MBC) assay; assay type: cell-based, Staphylococcus aureus
# Protocol: (§1) Minimal bactericidal concentration (MBC) assay—Overnight-grown MIC plates, prepared as described in Example 16, were evaluated to determine the MIC. Culture was then sampled from wells at and near the MIC using sterile inoculating loops, and transferred to fresh MHA plates to determine if viable bacteria remained. […] The MBC was determined as the well in the MIC plate which contained the lowest concentration of silver yielding no bacterial growth on the MHA plate.
# [16] = tested on: Ps. aeruginosa; assay: Minimal bactericidal concentration (MBC) assay; assay type: cell-based, Pseudomonas aeruginosa
# Protocol: as §1
# [17] = tested on: Strep. pyogenes; assay: Minimal bactericidal concentration (MBC) assay; assay type: cell-based, Streptococcus pyogenes
# Protocol: as §1
# [18] = tested on: K. pneumoniae; assay: Minimal bactericidal concentration (MBC) assay; assay type: cell-based, Klebsiella pneumoniae
# Protocol: as §1
# [19] = tested on: Ser. marcescens; assay: Minimal bactericidal concentration (MBC) assay; assay type: cell-based, Serratia marcescens
# Protocol: as §1
# [20] = tested on: E. coli; assay: Minimal bactericidal concentration (MBC) assay; assay type: cell-based, Escherichia coli
# Protocol: as §1
# [21] = tested on: Prot. mirabilis; assay: Minimal bactericidal concentration (MBC) assay; assay type: cell-based, Proteus mirabilis; conditions: Prot. mirabilis NP405
# Protocol: as §1
# [22] = tested on: C. freundii; assay: Minimal bactericidal concentration (MBC) assay; assay type: cell-based, Citrobacter freundii; conditions: C. freundii NP410
# Protocol: as §1
# [23] = tested on: B. multivorans; assay: Minimal bactericidal concentration (MBC) assay; assay type: cell-based, Burkholderia multivorans
# Protocol: as §1
# [24] = tested on: B dolosa; assay: Minimal bactericidal concentration (MBC) assay; assay type: cell-based, Burkholderia dolosa
# Protocol: as §1
# [25] = tested on: Staph epidermidis; assay: Minimal bactericidal concentration (MBC) assay; assay type: cell-based, Staphylococcus epidermidis
# Protocol: as §1
# [26] = K. pneumoniae NP403, second entry
# [27] = Ser. marcescens NP402, second entry
# [28] = Ser. marcescens NP408, second entry
structure (smiles),measurement,setting,value
"O=[N+]([O-])[O-].[Ag+] [AgNO3, silver nitrate]",MIC,"[1]; Staph aureus NP101, Lactate",9 ppm
same,MIC,"[1]; Staph aureus NP101, Water/Lecithin",11 ppm
same,MIC,"[1]; Staph aureus NP101, Water/PVA",11 ppm
same,MIC,"[1]; Staph aureus NP102, Lactate",9 ppm
same,MIC,"[1]; Staph aureus NP102, Water/Lecithin",11 ppm
same,MIC,"[1]; Staph aureus NP102, Water/PVA",11 ppm
same,MIC,"[1]; Staph aureus NP103, Lactate",9 ppm
same,MIC,"[1]; Staph aureus NP103, Water/Lecithin",11 ppm
same,MIC,"[1]; Staph aureus NP103, Water/PVA",11 ppm
same,MIC,[1]; Staph. aureus 6538,6 parts silver per million
same,MIC,[1]; Staph. aureus 700699,3 parts silver per million
same,MIC,[1]; Staph. aureus NP101,6 parts silver per million
same,MIC,[1]; Staph. aureus NP102,6 parts silver per million
same,MIC,[1]; Staph. aureus NP103,6 parts silver per million
same,MIC,"[1]; lactate solutions, S. aureus (ATCC), nanocrystalline silver: range for 12 samples",11 µg/mL
same,MIC,"[1]; lactate solutions, S. aureus (clin.), nanocrystalline silver: range for 12 samples",5 µg/mL
same,MIC,[2]; Staph epidermidis 12228,3 parts silver per million
same,MIC,[2]; Staph epidermidis NP136,3 parts silver per million
same,MIC,"[2]; lactate solutions, S. epiderm (ATCC), nanocrystalline silver: range for 12 samples",3 µg/mL
same,MIC,[3]; Strep. pyogenes NP303,3 parts silver per million
same,MIC,[3]; Strep. pyogenes NP304,6 parts silver per million
same,MIC,[3]; Strep. pyogenes NP306,6 parts silver per million
same,MIC,"[3]; lactate solutions, S. pyog (clin. 303), nanocrystalline silver: range for 12 samples",3 µg/mL
same,MIC,"[3]; lactate solutions, S. pyog (clin. 304), nanocrystalline silver: range for 12 samples",5 µg/mL
same,MIC,[4]; S. pneumo (clin 314),11 µg/mL
same,MIC,[4]; S. pneumo (clin 315),21 µg/mL
same,MIC,"[5]; P. aeruginosa NP212, formulation type Lactate",2 ppm
same,MIC,"[5]; P. aeruginosa NP212, formulation type Water/Lecithin",3 ppm
same,MIC,"[5]; P. aeruginosa NP212, formulation type Water/PVA",3 ppm
same,MIC,"[5]; P. aeruginosa NP213, Lactate",1 ppm
same,MIC,"[5]; P. aeruginosa NP213, Water/Lecithin",1 ppm
same,MIC,"[5]; P. aeruginosa NP213, Water/PVA",1 ppm
same,MIC,"[5]; P. aeruginosa NP214, Lactate",1 ppm
same,MIC,"[5]; P. aeruginosa NP214, Water/Lecithin",1 ppm
same,MIC,"[5]; P. aeruginosa NP214, Water/PVA",3 ppm
same,MIC,[5]; Ps. aeruginosa 9027,1 parts silver per million
same,MIC,[5]; Ps. aeruginosa 27317,2 parts silver per million
same,MIC,[5]; Ps. aeruginosa NP201,1 parts silver per million
same,MIC,[5]; Ps. aeruginosa NP204,1 parts silver per million
same,MIC,[5]; Ps. aeruginosa NP206,1 parts silver per million
same,MIC,"[5]; lactate solutions, P. aerug (ATCC), nanocrystalline silver: range for 12 samples",3 µg/mL
same,MIC,"[5]; lactate solutions, P. aerug. (clin.), nanocrystalline silver: range for 12 samples",3 µg/mL
same,MIC,[6]; B. multivorans B1,3 parts silver per million
same,MIC,[6]; B. multivorans B2,3 parts silver per million
same,MIC,[6]; B. multivorans B4,2 parts silver per million
same,MIC,[7]; B dolosa A3,2 parts silver per million
same,MIC,[7]; B dolosa A4,2 parts silver per million
same,MIC,[8],3 parts silver per million
same,MIC,[9]; aerobic +,13 µg/mL
same,MIC,[9]; aerobic − (anaerobic),25 µg/mL
same,MIC,[10]; K. pneumoniae NP401,3 parts silver per million
same,MIC,[10]; K. pneumoniae NP403,6 parts silver per million
same,MIC,[10]; [26],6 parts silver per million
same,MIC,[10]; K. pneumoniae NP406,1 parts silver per million
same,MIC,"[10]; Klebsiella pneumoniae, aerobic +",3 µg/mL
same,MIC,"[10]; Klebsiella pneumoniae, aerobic − (anaerobic)",3 µg/mL
same,MIC,[11],6 parts silver per million
same,MIC,[12]; Ser. marcescens NP402,6 parts silver per million
same,MIC,[12]; [27],6 parts silver per million
same,MIC,[12]; Ser. marcescens NP408,6 parts silver per million
same,MIC,[12]; [28],11 parts silver per million
same,MIC,"[12]; Serratia marcescens, aerobic +",6 µg/mL
same,MIC,"[12]; Serratia marcescens, aerobic − (anaerobic)",13 µg/mL
same,MIC,[13]; E. coli 8739,0.4 parts silver per million
same,MIC,[13]; E. coli 43745,1 parts silver per million
same,MIC,[13]; E. coli NP412,1 parts silver per million
same,MIC,"[13]; lactate solutions, E. coli (ATCC), nanocrystalline silver: range for 12 samples",3 µg/mL
same,MIC,[14],2.5 μg/ml silver
same,MBC,[15]; Staph. aureus 6538,6 parts silver per million
same,MBC,[15]; Staph. aureus 700699,6 parts silver per million
same,MBC,[15]; Staph. aureus NP101,11 parts silver per million
same,MBC,[15]; Staph. aureus NP102,6 parts silver per million
same,MBC,[15]; Staph. aureus NP103,6 parts silver per million
same,MBC,[16]; Ps. aeruginosa 27317,3 parts silver per million
same,MBC,[16]; Ps. aeruginosa NP201,3 parts silver per million
same,MBC,[16]; Ps. aeruginosa NP204,3 parts silver per million
same,MBC,[16]; Ps. aeruginosa NP206,1 parts silver per million
same,MBC,[17]; Strep. pyogenes NP303,10 parts silver per million
same,MBC,[17]; Strep. pyogenes NP304,21 parts silver per million
same,MBC,[17]; Strep. pyogenes NP306,21 parts silver per million
same,MBC,[18]; K. pneumoniae NP401,3 parts silver per million
same,MBC,[18]; K. pneumoniae NP403,6 parts silver per million
same,MBC,[18]; [26],3 parts silver per million
same,MBC,[18]; K. pneumoniae NP406,1 parts silver per million
same,MBC,[19]; Ser. marcescens NP402,6 parts silver per million
same,MBC,[19]; [27],6 parts silver per million
same,MBC,[19]; Ser. marcescens NP408,6 parts silver per million
same,MBC,[19]; [28],11 parts silver per million
same,MBC,[20]; E. coli 8739,0.4 parts silver per million
same,MBC,[20]; E. coli 43745,0.4 parts silver per million
same,MBC,[20]; E. coli NP412,1 parts silver per million
same,MBC,[21],13 parts silver per million
same,MBC,[22],3 parts silver per million
same,MBC,[23]; B. multivorans B1,3 parts silver per million
same,MBC,[23]; B. multivorans B2,3 parts silver per million
same,MBC,[23]; B. multivorans B4,3 parts silver per million
same,MBC,[24]; B dolosa A3,3 parts silver per million
same,MBC,[24]; B dolosa A4,2 parts silver per million
same,MBC,[25]; Staph epidermidis 12228,3 parts silver per million
same,MBC,[25]; Staph epidermidis NP136,3 parts silver per million
